# Assays:
# S. aureus RN4220 [pOX7] = test: MIC of pristinamycin IIA for S. aureus RN4220 carrying the shuttle vector pOX7; format: cell-based; details: Staphylococcus aureus; S. aureus recipient RN4220 with empty shuttle vector pOX7
# Protocol: (§1) A DNA fragment of 858 nt containing vatE (nt 104 to nt 961, Accession No. AF153312) was amplified from pIP1798 and inserted between the EcoRI and SmaI sites of the shuttle vector, pOX7 (11). The resulting plasmid, pIP1801, introduced by electroporation in the S. aureus recipient, RN4220 (15), conferred resistance to pristinamycin IIA (MICs: 2 μg/ml for RN4220 [pOX7] and 8 μg/ml for RN4220 [pIP1801]).
# [1] = tested on: S. aureus RN4220 [pIP1801]; test: MIC of pristinamycin IIA for S. aureus RN4220 carrying pIP1801 (vatE); format: cell-based; details: Staphylococcus aureus; S. aureus recipient RN4220 with pIP1801 (pOX7 carrying vatE), introduced by electroporation
# Protocol: as §1
compound,measurement,setting,value
CC1=C\[C@@H](O)CC(=O)Cc2nc(co2)C(=O)N2CCC=C2C(=O)O[C@H](C(C)C)[C@H](C)/C=C/C(=O)NC\C=C\1 [pristinamycin IIA],MIC,S. aureus RN4220 [pOX7],2 µg/mL
same,MIC,[1],8 µg/mL
